Test results taken from PubChem BioAssay (NCI).
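Compound exposure: 48 hours, 5 concentrations, 96-well plates. TGI denotes the concentration required for complete inhibition of growth.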

Assays:
Assay in all cases: NCI-60 cell line screen, 48 h
[1] = test system: 786-0 renal
[2] = test system: A498 renal
[3] = test system: A549 NSCLC
[4] = test system: ACHN renal
[5] = test system: CAKI-1 renal
[6] = test system: CCRF-CEM leukemia
[7] = test system: COLO 205 colon
[8] = test system: DU-145 prostate
[9] = test system: EKVX NSCLC
[10] = test system: HCC-2998 colon
[11] = test system: HCT-116 colon
[12] = test system: HCT-15 colon
[13] = test system: HL-60(TB) leukemia
[14] = test system: HOP-62 NSCLC
[15] = test system: HOP-92 NSCLC
[16] = test system: K-562 leukemia
[17] = test system: KM12 colon
[18] = test system: LOX IMVI melanoma
[19] = test system: M14 melanoma
[20] = test system: MCF7 breast
[21] = test system: MDA-MB-435
[22] = test system: MDA-N
[23] = test system: MOLT-4 leukemia
[24] = test system: NCI-H23 lung
[25] = test system: NCI-H460 lung
[26] = test system: NCI/ADR-RES ovarian
[27] = test system: OVCAR-3 ovarian
[28] = test system: OVCAR-4 ovarian
[29] = test system: OVCAR-5 ovarian
[30] = test system: PC-3 prostate
[31] = test system: RPMI-8226 leukemia
[32] = test system: RXF 393 renal
[33] = test system: SF-295 CNS
[34] = test system: SK-MEL-2 melanoma
[35] = test system: SK-MEL-28 melanoma
[36] = test system: SK-MEL-5 melanoma
[37] = test system: SK-OV-3 ovarian
[38] = test system: SN12C renal
[39] = test system: SNB-19 CNS
[40] = test system: SNB-75 CNS
[41] = test system: SW-620 colon
[42] = test system: T-47D breast
[43] = test system: U251 CNS
[44] = test system: UO-31 renal
[45] = test system: BT-549 breast
[46] = test system: HS 578T breast
[47] = test system: HT29 colon
[48] = test system: IGROV1 ovarian
[49] = test system: MALME-3M melanoma
[50] = test system: MDA-MB-231 breast
[51] = test system: NCI-H226 lung
[52] = test system: NCI-H522 lung
[53] = test system: OVCAR-8 ovarian
[54] = test system: SF-268 CNS
[55] = test system: SF-539 CNS
[56] = test system: SR leukemia
[57] = test system: TK-10 renal
[58] = test system: UACC-257 melanoma
[59] = test system: UACC-62 melanoma

C#CCCCC(=C)C[C@@H]1OC(=O)[C@H](C)[C@@H]1O
TGI [1]: > 100 µM | TGI [2]: > 100 µM | TGI [3]: > 100 µM | TGI [4]: > 100 µM | TGI [5]: > 100 µM | TGI [6]: > 100 µM | TGI [7]: > 100 µM | TGI [8]: > 100 µM | TGI [9]: > 100 µM | TGI [10]: > 100 µM | TGI [11]: > 100 µM | TGI [12]: > 100 µM | TGI [13]: > 100 µM | TGI [14]: > 100 µM | TGI [15]: > 100 µM | TGI [16]: > 100 µM | TGI [17]: > 100 µM | TGI [18]: > 100 µM | TGI [19]: > 100 µM | TGI [20]: > 100 µM | TGI [21]: > 100 µM | TGI [22]: > 100 µM | TGI [23]: > 100 µM | TGI [24]: > 100 µM | TGI [25]: > 100 µM | TGI [26]: > 100 µM | TGI [27]: > 100 µM | TGI [28]: > 100 µM | TGI [29]: > 100 µM | TGI [30]: > 100 µM | TGI [31]: > 100 µM | TGI [32]: > 100 µM | TGI [33]: > 100 µM | TGI [34]: > 100 µM | TGI [35]: > 100 µM | TGI [36]: > 100 µM | TGI [37]: > 100 µM | TGI [38]: > 100 µM | TGI [39]: > 100 µM | TGI [40]: > 100 µM | TGI [41]: > 100 µM | TGI [42]: > 100 µM | TGI [43]: > 100 µM | TGI [44]: > 100 µM

Cc1cc(C)c2ccc(N3CCNCC3)nc2n1
TGI [1]: > 100 µM | TGI [3]: > 100 µM | TGI [4]: > 100 µM | TGI [45]: > 100 µM | TGI [5]: > 100 µM | TGI [6]: > 100 µM | TGI [7]: > 100 µM | TGI [8]: > 100 µM | TGI [9]: > 100 µM | TGI [10]: > 100 µM | TGI [11]: > 100 µM | TGI [12]: > 100 µM | TGI [13]: > 100 µM | TGI [14]: > 100 µM | TGI [15]: > 100 µM | TGI [46]: > 100 µM | TGI [47]: > 100 µM | TGI [48]: > 100 µM | TGI [16]: > 100 µM | TGI [17]: > 100 µM | TGI [18]: > 100 µM | TGI [19]: > 100 µM | TGI [49]: > 100 µM | TGI [20]: > 100 µM | TGI [50]: > 100 µM | TGI [21]: > 100 µM | TGI [22]: > 100 µM | TGI [23]: > 100 µM | TGI [51]: > 100 µM | TGI [24]: > 100 µM | TGI [25]: > 100 µM | TGI [52]: > 100 µM | TGI [26]: > 100 µM | TGI [27]: > 100 µM | TGI [28]: > 100 µM | TGI [29]: > 100 µM | TGI [53]: > 100 µM | TGI [30]: > 100 µM | TGI [31]: > 100 µM | TGI [54]: > 100 µM | TGI [33]: > 100 µM | TGI [55]: > 100 µM | TGI [34]: > 100 µM | TGI [35]: > 100 µM | TGI [37]: > 100 µM | TGI [38]: > 100 µM | TGI [39]: > 100 µM | TGI [40]: > 100 µM | TGI [56]: > 100 µM | TGI [41]: > 100 µM | TGI [57]: > 100 µM | TGI [43]: > 100 µM | TGI [58]: > 100 µM | TGI [59]: > 100 µM | TGI [44]: > 100 µM

CCCCN(CCCC)CC(O)c1cc(-c2ccc(Cl)c(Cl)c2)nc2c(Cl)cc(Cl)cc12 (stereo unspecified)
TGI [1]: > 100 µM | TGI [2]: > 100 µM | TGI [4]: > 100 µM | TGI [6]: > 100 µM | TGI [7]: > 100 µM | TGI [8]: > 100 µM | TGI [9]: > 100 µM | TGI [10]: > 100 µM | TGI [11]: > 100 µM | TGI [12]: > 100 µM | TGI [13]: > 100 µM | TGI [14]: > 100 µM | TGI [47]: > 100 µM | TGI [48]: > 100 µM | TGI [18]: > 100 µM | TGI [49]: > 100 µM | TGI [20]: > 100 µM | TGI [50]: > 100 µM | TGI [21]: > 100 µM | TGI [22]: > 100 µM | TGI [23]: > 100 µM | TGI [24]: > 100 µM | TGI [25]: > 100 µM | TGI [26]: > 100 µM | TGI [27]: > 100 µM | TGI [28]: > 100 µM | TGI [29]: > 100 µM | TGI [53]: > 100 µM | TGI [30]: > 100 µM | TGI [31]: > 100 µM | TGI [54]: > 100 µM | TGI [33]: > 100 µM | TGI [55]: > 100 µM | TGI [34]: > 100 µM | TGI [35]: > 100 µM | TGI [37]: > 100 µM | TGI [38]: > 100 µM | TGI [39]: > 100 µM | TGI [40]: > 100 µM | TGI [56]: > 100 µM | TGI [41]: 39.1 µM | TGI [42]: > 100 µM | TGI [57]: > 100 µM | TGI [43]: > 100 µM | TGI [58]: > 100 µM | TGI [59]: > 100 µM | TGI [44]: > 100 µM
